Changes are numbered by the printed parent chain.
Tests used:
Format in all cases: binding
[1] = target: T1, His:ARD (ankyrin repeat domain of AKR2A) (Arabidopsis thaliana, UniProt Q9SAR5, Y294A); assay: SPR sensorgrams, lipid vesicles on L1 chip; conditions: POPG/POPC (50:50) vesicles; pH 7.4, 0.16 M NaCl, 23°C; L2 site
T1 sequence (Q9SAR5 211-342 Y294A): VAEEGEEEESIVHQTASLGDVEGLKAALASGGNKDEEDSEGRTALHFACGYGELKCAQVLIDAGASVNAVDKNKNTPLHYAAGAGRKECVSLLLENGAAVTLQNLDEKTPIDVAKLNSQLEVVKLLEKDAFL

[2] = target: T2, His:ARD (ankyrin repeat domain of AKR2A) (Arabidopsis thaliana, UniProt Q9SAR5, H223A); assay: SPR sensorgrams, lipid vesicles on L1 chip; conditions: POPG/POPC (50:50) vesicles; pH 7.4, 0.16 M NaCl, 23°C; L1 site
T2 sequence (Q9SAR5 211-342 H223A): T1 sequence (Q9SAR5 211-342 Y294A) with H13A, A84Y

[3] = target: T3, His:AKR2A (full-length AKR2A) (Arabidopsis thaliana, UniProt Q9SAR5); assay: SPR, lipid vesicles on L1 chip; conditions: POPG/POPC/MGDG [50:(50−x):x] vesicles; pH 7.4, 0.16 M NaCl, 23°C
T3 sequence (Q9SAR5 1-342): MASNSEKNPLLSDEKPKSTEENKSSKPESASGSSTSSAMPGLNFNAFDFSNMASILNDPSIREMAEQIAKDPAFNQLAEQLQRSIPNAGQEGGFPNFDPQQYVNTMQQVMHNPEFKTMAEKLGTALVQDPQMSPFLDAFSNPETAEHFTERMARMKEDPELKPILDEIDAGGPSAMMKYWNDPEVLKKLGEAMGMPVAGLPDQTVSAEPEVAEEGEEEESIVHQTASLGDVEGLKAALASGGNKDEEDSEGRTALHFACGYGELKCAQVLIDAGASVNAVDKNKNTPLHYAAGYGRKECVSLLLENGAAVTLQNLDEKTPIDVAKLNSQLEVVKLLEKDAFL

[4] = target: T4, His:ARD (ankyrin repeat domain of AKR2A) (Arabidopsis thaliana, UniProt Q9SAR5, R296A); assay: SPR sensorgrams, lipid vesicles on L1 chip; conditions: POPG/POPC (50:50) vesicles; pH 7.4, 0.16 M NaCl, 23°C; L2 site
T4 sequence (Q9SAR5 211-342 R296A): T1 sequence (Q9SAR5 211-342 Y294A) with A84Y, R86A

[5] = target: T5, His:ARD (ankyrin repeat domain of AKR2A) (Arabidopsis thaliana, UniProt Q9SAR5, E246A); assay: SPR sensorgrams, lipid vesicles on L1 chip; conditions: POPG/POPC (50:50) vesicles; pH 7.4, 0.16 M NaCl, 23°C; L1 site
T5 sequence (Q9SAR5 211-342 E246A): T1 sequence (Q9SAR5 211-342 Y294A) with E36A, A84Y

[6] = target: T6, His:ARD (ankyrin repeat domain of AKR2A) (Arabidopsis thaliana, UniProt Q9SAR5, L315A); assay: SPR sensorgrams, lipid vesicles on L1 chip; conditions: POPG/POPC (50:50) vesicles; pH 7.4, 0.16 M NaCl, 23°C; L3 site
T6 sequence (Q9SAR5 211-342 L315A): T1 sequence (Q9SAR5 211-342 Y294A) with A84Y, L105A

[7] = target: T7, His:ARD (ankyrin repeat domain of AKR2A) (Arabidopsis thaliana, UniProt Q9SAR5, N314A); assay: SPR sensorgrams, lipid vesicles on L1 chip; conditions: POPG/POPC (50:50) vesicles; pH 7.4, 0.16 M NaCl, 23°C; L3 site
T7 sequence (Q9SAR5 211-342 N314A): T1 sequence (Q9SAR5 211-342 Y294A) with A84Y, N104A

## CCCCCCCC/C=C\CCCCCCCC(=O)O[C@H](COC(=O)CCCCCCCCCCCCCCC)COP(=O)(O)OCC(O)CO (stereo partly shown) [POPG]
[1]
  SPR sensorgrams, lipid vesicles on L1 chip: the L2 site mutants (Y294A and R296A) showed significantly lower binding than WT
[2]
  SPR sensorgrams, lipid vesicles on L1 chip: The L1 site mutants H223A and E246A also had a significantly lower binding affinity
[3]
  SPR, lipid vesicles on L1 chip: MGDG-dependent vesicle binding of full-length (FL) AKR2A (red) and ARD (blue)
[4]
  SPR sensorgrams, lipid vesicles on L1 chip: the L2 site mutants (Y294A and R296A) showed significantly lower binding than WT
[5]
  SPR sensorgrams, lipid vesicles on L1 chip: The L1 site mutants H223A and E246A also had a significantly lower binding affinity
[6]
  SPR sensorgrams, lipid vesicles on L1 chip: the L3 site mutants (N314A and L315A) showed only modestly reduced binding
[7]
  SPR sensorgrams, lipid vesicles on L1 chip: the L3 site mutants (N314A and L315A) showed only modestly reduced binding
